Values after ≈ are worked out from the molar mass of the structure shown. Where two headings read alike, the source gives them in different places.
Key:
[1] = test system: E. coli KA797 cells carrying BlaC position 105 library; type: cell-based, Escherichia coli; conditions: for Fi MEM AVG / Fi AVG (average fitness): average of replicates; for Fi AVG (average fitness): relative to WT Ile
[2] = test system: E. coli KA797 cells carrying pUK21 vector without the β-lactamase gene; experiment: microbe, parasite or virus in culture; type: cell-based; conditions: Escherichia coli; antibiotic alone; pUK21 without β-lactamase gene; read-out: MIC
[3] = test system: E. coli KA797 cells carrying KPC-2 position 105 library; type: cell-based; conditions: selection with labelled antibiotic
[4] = KPC-2 AA 105 = Trp (WT, reference)

SMILES: C[C@@H](O)[C@H]1C(=O)N2C(C(=O)O)=C(S[C@@H]3CN[C@H](C(=O)N(C)C)C3)[C@H](C)[C@H]12 [meropenem]
- Fi MEM AVG ([1]; AA 105 Ser, meropenem): -1.018
- Fi MEM 1 ([1]; AA 105 Ser, meropenem, replicate 1): -0.084
- Fi MEM 2 ([1]; AA 105 Ser, meropenem, replicate 2): -1.824
- Fi MEM 3 ([1]; AA 105 Ser, meropenem, replicate 3): -1.144
- Fi AVG (average fitness) ([1]; AA 105 Thr (BlaC I105T)): -0.015
- Significance (Fi MEM AVG) ([1]; AA 105 Thr, meropenem): -
- Fi MEM AVG ([1]; AA 105 Thr, meropenem): -1.775
- Fi MEM 1 ([1]; AA 105 Thr, meropenem, replicate 1): -1.838
- Fi MEM 2 ([1]; AA 105 Thr, meropenem, replicate 2): -2.332
- Fi MEM 3 ([1]; AA 105 Thr, meropenem, replicate 3): -1.155
- Fi MEM AVG ([1]; AA 105 Trp, meropenem): -0.487
- Fi MEM 1 ([1]; AA 105 Trp, meropenem, replicate 1): 0.050
- Fi MEM 2 ([1]; AA 105 Trp, meropenem, replicate 2): -1.403
- Fi MEM 3 ([1]; AA 105 Trp, meropenem, replicate 3): -0.109
- Fi AVG (average fitness) ([1]; AA 105 Tyr (BlaC I105Y)): -0.070
- Fi MEM AVG ([1]; AA 105 Tyr, meropenem): -0.204
- Fi MEM 1 ([1]; AA 105 Tyr, meropenem, replicate 1): 0.312
- Fi MEM 2 ([1]; AA 105 Tyr, meropenem, replicate 2): -1.109
- Fi MEM 3 ([1]; AA 105 Tyr, meropenem, replicate 3): 0.185
- Fi AVG (average fitness) ([1]; AA 105 Val (BlaC I105V)): -0.016
- Fi MEM AVG ([1]; AA 105 Val, meropenem): -0.855
- Fi MEM 1 ([1]; AA 105 Val, meropenem, replicate 1): 0.059
- Fi MEM 2 ([1]; AA 105 Val, meropenem, replicate 2): -2.574
- Fi MEM 3 ([1]; AA 105 Val, meropenem, replicate 3): -0.049
- WT abs Fi 1 ([1]; WT (Ile 105) absolute fitness, meropenem, replicate 1): 0.125
- WT abs Fi 2 ([1]; WT (Ile 105) absolute fitness, meropenem, replicate 2): 0.070
- WT abs Fi 3 ([1]; WT (Ile 105) absolute fitness, meropenem, replicate 3): 0.109
- MIC [2]: 0.05 µg/mL (≈ 0.13 µM)
- Fi (relative fitness), Replicate 1 ([3]; KPC-2 AA 105 = Ala): 0.581
- Fi AVG (average fitness of replicates) ([3]; KPC-2 AA 105 = Ala): 0.217
- Fi (relative fitness), Replicate 1 ([3]; KPC-2 AA 105 = Arg): 0.240
- Fi AVG (average fitness of replicates) ([3]; KPC-2 AA 105 = Arg): 0.280
- Significance of average fitness ([3]; KPC-2 AA 105 = Arg): +
- Fi (relative fitness), Replicate 1 ([3]; KPC-2 AA 105 = Asn): 0.449
- Fi AVG (average fitness of replicates) ([3]; KPC-2 AA 105 = Asn): 0.201
- Fi (relative fitness), Replicate 1 ([3]; KPC-2 AA 105 = Asp): -0.690
- Fi AVG (average fitness of replicates) ([3]; KPC-2 AA 105 = Asp): -0.489
- Fi (relative fitness), Replicate 1 ([3]; KPC-2 AA 105 = Cys): -0.271
- Fi AVG (average fitness of replicates) ([3]; KPC-2 AA 105 = Cys): -0.750
- Significance of average fitness ([3]; KPC-2 AA 105 = Cys): -
- Fi (relative fitness), Replicate 1 ([3]; KPC-2 AA 105 = Gln): -0.624
- Fi AVG (average fitness of replicates) ([3]; KPC-2 AA 105 = Gln): -1.307
- Significance of average fitness ([3]; KPC-2 AA 105 = Gln): -
- Fi (relative fitness), Replicate 1 ([3]; KPC-2 AA 105 = Glu): -0.509
- Fi AVG (average fitness of replicates) ([3]; KPC-2 AA 105 = Glu): -0.226
- Fi AVG (average fitness of replicates) ([3]; KPC-2 AA 105 = Gly): -0.037
- Fi (relative fitness), Replicate 1 ([3]; KPC-2 AA 105 = His): -1.077
- Fi AVG (average fitness of replicates) ([3]; KPC-2 AA 105 = His): -0.525
- Fi (relative fitness), Replicate 1 ([3]; KPC-2 AA 105 = Ile): 0.107
- Fi AVG (average fitness of replicates) ([3]; KPC-2 AA 105 = Ile): 0.391
- Significance of average fitness ([3]; KPC-2 AA 105 = Ile): +
- Fi (relative fitness), Replicate 1 ([3]; KPC-2 AA 105 = Leu): -0.731
- Fi AVG (average fitness of replicates) ([3]; KPC-2 AA 105 = Leu): -0.210
- Fi (relative fitness), Replicate 1 ([3]; KPC-2 AA 105 = Lys): 0.268
- Fi AVG (average fitness of replicates) ([3]; KPC-2 AA 105 = Lys): -0.089
- Fi (relative fitness), Replicate 1 ([3]; KPC-2 AA 105 = Met): -1.083
- Fi AVG (average fitness of replicates) ([3]; KPC-2 AA 105 = Met): -0.791
- Fi (relative fitness), Replicate 1 ([3]; KPC-2 AA 105 = Phe): -0.159
- Fi AVG (average fitness of replicates) ([3]; KPC-2 AA 105 = Phe): 0.248
- Fi (relative fitness), Replicate 1 ([3]; KPC-2 AA 105 = Pro): -0.148
- Fi AVG (average fitness of replicates) ([3]; KPC-2 AA 105 = Pro): -1.195
- Significance of average fitness ([3]; KPC-2 AA 105 = Pro): -
- Fi (relative fitness), Replicate 1 ([3]; KPC-2 AA 105 = Ser): 0.279
- Fi AVG (average fitness of replicates) ([3]; KPC-2 AA 105 = Ser): -0.239
- Fi AVG (average fitness of replicates) ([3]; KPC-2 AA 105 = Thr): -0.051
- Fi (relative fitness), Replicate 1 [3, 4]: 0.000
- Fi AVG (average fitness of replicates) [3, 4]: 0.000
- Fi (relative fitness), Replicate 1 ([3]; KPC-2 AA 105 = Tyr): 0.109
- Fi AVG (average fitness of replicates) ([3]; KPC-2 AA 105 = Tyr): -0.474
- Fi (relative fitness), Replicate 1 ([3]; KPC-2 AA 105 = Val): -1.754
- Fi AVG (average fitness of replicates) ([3]; KPC-2 AA 105 = Val): -0.973
- WT abs Fi 1 (absolute fitness) ([3]; KPC-2 WT (Trp 105), replicate 1): 0.081
- WT abs Fi 2 (absolute fitness) ([3]; KPC-2 WT (Trp 105), replicate 2): -0.069
- WT abs Fi 3 (absolute fitness) ([3]; KPC-2 WT (Trp 105), replicate 3): 0.298

— PMC12274840 (The Journal of Biological Chemistry, 2025)
